From patent US10799597B2, “Subcutaneous administration of antibody-drug conjugates for cancer therapy” (Immunomedics, Inc., priority 2017, dated 2020)

Experiments:
BxPC-3 = assay: Signaling events (p21Waf1/Cip1, p53) in BxPC-3 cells; assay type: cell-based, human
Excerpt: (§1) SN-38 is known to activate several signaling pathways in cells, leading to apoptosis (e.g., Cusack et al., 2001, Cancer Res 61:3535-40; Liu et al. 2009, Cancer Lett 274:47-53; Lagadec et al., 2008, Br J Cancer 98:335-44). Our initial studies examined the expression of 2 proteins involved in early signaling events (p21^Waf1/Cip1 and p53) and 1 late apoptotic event [cleavage of poly-ADP-ribose polymerase (PARP)] in vitro (not shown).

MDA-MB-468 = assay: MTS cytotoxicity assay, MDA-MB-468; assay type: cell-based, human; conditions: Example 5, 96 h
Calu-3 = assay: Signaling events (p21Waf1/Cip1, p53) in Calu-3 cells; assay type: cell-based, human
Excerpt: as §1

[1] = test system: COLO 205 colonic adenocarcinoma xenografts
[2] = test system: SK-MES-1 human squamous cell lung tumors; assay: Therapy of SK-MES-1 tumor xenografts in nude mice; conditions: hA20 ADC equal dose; irinotecan at MTD (q2dx5)
[3] = test system: Calu-3 non-small cell lung carcinoma xenografts; assay: Therapy of Calu-3 tumor xenografts in nude mice; assay type: in vivo, athymic nude mice; conditions: 0.4 mg/kg SN-38 q4dx4
Description: FIG. 4A. […] Mice bearing Calu-3 tumors (N=5-7) were injected with hRS7-CL2-SN-38 every 4 days for a total of 4 injections (q4dx4).

FIG. 3A = assay: FIG. 3A
Description: Table printed on a drawing sheet, FIG. 3A
Footnotes: CL2-SN-38: AA = Phe / CL2A-SN-38: AA = None
The patent's description of the figure: FIG. 3A. Structures of CL2-SN-38 and CL2A-SN-38.
FIG. 3C. […] Capan-1 mice (N=10) were treated with 0.2 mg/kg ADC and tumors measured weekly.

[4] = test system: Capan-1 pancreatic adenocarcinoma xenografts; assay: Therapy of Capan-1 tumor xenografts in nude mice; assay type: in vivo, athymic nude mice; conditions: 0.2 mg/kg SN-38 twice weekly×4 weeks
Description: FIG. 3C. […] Animals were treated twice weekly for 4 weeks as indicated by the arrows. Capan-1 mice (N=10) were treated with 0.2 mg/kg ADC and tumors measured weekly.
FIG. 4C. […] Capan-1 (N=10) were treated twice weekly for 4 weeks with the agents indicated.

[5] = Body weight loss in the murine therapy studies; assay type: in vivo, mice; conditions: all murine studies
[6] = test system: diverse metastatic cancers; assay: Phase I/II clinical trial of IMMU-132 (Example 9): best response and TTP
[7] = Tolerability in Cynomolgus monkeys; assay type: in vivo, Cynomolgus monkeys (Macaca fascicularis)
Description: FIG. 5C. Tolerability of hRS7-CL2A-SN-38 in Cynomolgus monkeys. […] All animals were bled on day −1, 3, and 6. Four monkeys were bled on day 11 in the 0.96 mg/kg group, 3 in the 1.92 mg/kg group. Changes in neutrophil counts in Cynomolgus monkeys.
FIG. 5D. Tolerability of hRS7-CL2A-SN-38 in Cynomolgus monkeys. […] All animals were bled on day −1, 3, and 6. Four monkeys were bled on day 11 in the 0.96 mg/kg group, 3 in the 1.92 mg/kg group. Changes in platelet counts in Cynomolgus monkeys.

[8] = Pharmacokinetics of MAb vs. ADC (IMMU-130) in mice; assay type: in vivo
Description: Experiments were conducted in female athymic nude mice, 4 weeks or older, bearing s.c. LS174T human colon carcinoma xenografts of (˜0.2 cm^3 size), or 2 weeks after lung metastases were generated by i.v. injection of GW-39 human colon carcinoma cells. Untreated controls, including a non-targeting ADC, were included. […] Tolerability studies were conducted in white New Zealand rabbits.

[9] = esophageal cancer, 4 assessable patients

CCc1c2c(nc3ccc(O)cc13)-c1cc3c(c(=O)n1C2)COC(=O)[C@]3(O)CC [SN-38, reference compound]
time of p53 upregulation (BxPC-3): 48 h | IC50 (MDA-MB-468): 1.54 nM | time of p53 upregulation (Calu-3): 48 h

CCc1c2c(nc3ccc(OC(=O)N4CCC(N5CCCCC5)CC4)cc13)-c1cc3c(c(=O)n1C2)COC(=O)[C@]3(O)CC [irinotecan, reference compound]
effectiveness of the MTD of irinotecan ([1]; 24 mg SN-38/kg, q2dx5): as effective as hRS7-CL2-SN-38 | antitumor effect relative to the specific conjugate [2]: provided the same antitumor effects as the specific hRS7-SN-38 conjugate

CC(=O)O[C@H]1C(=O)[C@@]2(C)[C@H]([C@H](OC(=O)c3ccccc3)[C@]3(O)C[C@H](OC(=O)[C@H](O)[C@@H](NC(=O)c4ccccc4)c4ccccc4)C(C)=C1C3(C)C)[C@]1(OC(C)=O)CO[C@@H]1C[C@@H]2O [paclitaxel]
IC50 (MDA-MB-468; Homo sapiens, MDA-MB-468): < 0.061 nM

hLL2-CL2-SN-38 [reference compound]
tumor outcome [3]: tumors regrew

hRS7 IgG
time of p53 upregulation (BxPC-3): 48 h | time of p53 upregulation (Calu-3): 48 h

hRS7-CL2-SN-38 [listing 1 of 2 here]
HUMAN SERUM HALF-LIFE (FIG. 3A): 22.1 h

hRS7-CL2-SN-38 [listing 2 of 2 here]
tumor growth vs. saline and hA20-CL2A-SN-38 [4]: significantly inhibited tumor growth | mice tumor-free at the end of the study ([4]; day 140): 40% | tumor growth vs. saline and hA20-CL2A-SN-38 ([1]; 0.4 mg/kg SN-38 twice weekly×4 weeks): significantly inhibited tumor growth | time by which all mice were cured [3]: ≤ 28 days | tumor outcome [3]: remained tumor-free until the end of the study on day 147

hRS7-CL2A-SN-38
HUMAN SERUM HALF-LIFE (FIG. 3A): 20.3 h

hRS7-SN-38
tolerability in terms of body weight loss [5]: well tolerated | reduction in target lesions ([6]; CRC patient, 8 mg/kg, first CT assessment): 37% | maximum reduction in target lesions ([6]; CRC patient, after 10 months of treatment): 65% | Best Response: PD, number of patients ([6]; CRC, 18 assessable patients): 6 | Best Response: PR, number of patients ([6]; CRC, 18 assessable patients): 1 | Best Response: SD, number of patients ([6]; CRC, 18 assessable patients): 11 | Best Response: PD, number of patients ([6]; NSCLC, 5 assessable patients): 1 | Best Response: PR, number of patients ([6]; NSCLC, 5 assessable patients): 1 | Best Response: SD, number of patients ([6]; NSCLC, 5 assessable patients): 3 | Best Response: PD, number of patients ([6]; SCLC, 4 assessable patients): 2 | Best Response: PR, number of patients ([6]; SCLC, 4 assessable patients): 2 | Best Response: SD, number of patients ([6]; SCLC, 4 assessable patients): 0 | Best Response: PD, number of patients ([6]; TNBC, 8 assessable patients): 2 | Best Response: PR, number of patients ([6]; TNBC, 8 assessable patients): 2 | Best Response: SD, number of patients ([6]; TNBC, 8 assessable patients): 4 | Best Response: PD, number of patients ([6]; all patients, 48 assessable): 14 | Best Response: PR, number of patients ([6]; all patients, 48 assessable): 7 | Best Response: SD, number of patients ([6]; all patients, 48 assessable): 27 | Best Response: PD, number of patients [6, 9]: 1 | Best Response: PR, number of patients [6, 9]: 1 | Best Response: SD, number of patients [6, 9]: 2 | tolerated cumulative human equivalent dose ([7]; cynomolgus monkey, in vivo): 22 mg/m^2 | tolerated dose ([7]; mild and reversible toxicity): 0.96 mg/kg/dose | extrapolated human dose ([7]; per dose): ~11 mg/m^2

labetuzumab
half-life longer for MAb vs. ADC [8]: ~25%
